# Source: patent US20070128217A1 (priority 2003, published 2007)
# How the values were obtained:
# [1] = tested on: control sera (pooled serum of ten healthy LUMC hospital workers; commercial negative donor pooled serum from the Dutch bloodbank); format: binding, human; design: Binding of Control serum LUMC to linear peptides / Binding of Control serum Blood-bank to linear peptides / Binding of Control serum LUMC to looped peptides / Binding of Control Serum Blood-Bank to Looped peptides / Binding of Control serum LUMC to linear peptides of the protein M of SARS-CoV Urbani / Binding of Control serum Blood-bank to linear peptides of the protein M of SARS-CoV Urbani / Binding of Control serum LUMC to looped peptides of the protein M of SARS-CoV Urbani / Binding of Control Serum Blood-Bank to Looped peptides of the protein M of SARS-CoV Urbani: unit not given here
# [2] = tested on: rabbit serum obtained by immunizing a rabbit with the SARS-CoV strain Frankfurt 1; format: binding; design: Binding of a rabbit serum to linear peptides / Binding of a rabbit serum to looped peptides / Rabbit serum linear peptides / Rabbit serum looped peptides / Binding of a rabbit serum to linear peptides of protein N of SARS-CoV Urbani (Rabbit serum linear peptides) / Binding of a rabbit serum to looped/cyclic peptides of protein N of SARS-CoV Urbani (Rabbit serum looped peptides): unit not given here
Sequence,Rabbit serum linear peptides [2],Rabbit serum looped peptides [2],Binding of Control Serum Blood-Bank to Looped peptides [1],Binding of Control serum Blood-bank to linear peptides [1],Binding of Control serum LUMC to linear peptides [1],Binding of Control serum LUMC to looped peptides [1],Binding of a rabbit serum to linear peptides [2],Binding of a rabbit serum to looped peptides [2],also measured
VRQLFKPLTKKNYSE,0.4,2.2,–,–,–,–,–,–,Binding of Control Serum Blood-Bank to Looped peptides of the protein X3 of SARS-CoV Urbani [1]: 0.9; Binding of Control serum Blood-bank to linear peptides of the protein X3 of SARS-CoV Urbani [1]: 0.9; Binding of Control serum LUMC to linear peptides of the protein X3 of SARS-CoV Urbani [1]: 0.7; Binding of Control serum LUMC to looped peptides of the protein X3 of SARS-CoV Urbani [1]: 0.7
ITAQPVKIDNASPAS,–,–,0.5,0.7,0.7,0.5,0.1,0.3,–
DRHSGVKDYVVVHGY,–,–,0.6,0.7,0.7,0.4,0.1,0.5,–
ASQRVGTDSGFAAYN,0.4,0.1,–,–,–,–,–,–,Binding of Control Serum Blood-Bank to Looped peptides of the protein M of SARS-CoV Urbani [1]: 0.7; Binding of Control serum Blood-bank to linear peptides of the protein M of SARS-CoV Urbani [1]: 0.8; Binding of Control serum LUMC to linear peptides of the protein M of SARS-CoV Urbani [1]: 0.5; Binding of Control serum LUMC to looped peptides of the protein M of SARS-CoV Urbani [1]: 0.8
GSSGVANPAMDPIYD,–,–,0.4,0.6,0.7,0.4,0.1,0.5,–
NPAMDPIYDEPTTTT,–,–,0.4,0.4,0.3,0.4,0.1,0.3,–
GTQVLKTMSLYMAIS,–,–,0.7,0.6,0.6,0.6,0.2,0.4,–
LVKDPPNVQIHTIDG,–,–,0.6,0.4,0.4,0.7,0.1,0.5,–
PNVTINCQDPAGGAL,0.6,0.2,0.4,1.0,0.7,0.4,–,–,–
YYKLGASQRVGTDSG,0.1,0.0,–,–,–,–,–,–,Binding of Control Serum Blood-Bank to Looped peptides of the protein M of SARS-CoV Urbani [1]: 0.7; Binding of Control serum Blood-bank to linear peptides of the protein M of SARS-CoV Urbani [1]: 1.0; Binding of Control serum LUMC to linear peptides of the protein M of SARS-CoV Urbani [1]: 0.8; Binding of Control serum LUMC to looped peptides of the protein M of SARS-CoV Urbani [1]: 0.7
ADNGTITVEELKQLL,–,–,–,–,–,–,–,–,Binding of Control Serum Blood-Bank to Looped peptides of the protein M of SARS-CoV Urbani [1]: 0.5; Binding of Control serum Blood-bank to linear peptides of the protein M of SARS-CoV Urbani [1]: 0.7; Binding of Control serum LUMC to linear peptides of the protein M of SARS-CoV Urbani [1]: 0.5; Binding of Control serum LUMC to looped peptides of the protein M of SARS-CoV Urbani [1]: 0.7; Recognition of the peptide by the rabbit serum [2]: recognized
KIDNASPASTVHATA,–,–,0.6,0.6,0.7,0.7,0.2,0.3,–
HTMVQTCTPNVTINC,0.4,0.2,0.8,0.9,0.7,0.6,–,–,–
GGYSEDRHSGVKDYV,–,–,0.4,0.6,0.4,0.5,0.1,0.2,–
NTDHAGSNDNIALLV,0.4,0.4,–,–,–,–,–,–,Binding of Control Serum Blood-Bank to Looped peptides of the protein M of SARS-CoV Urbani [1]: 1.0; Binding of Control serum Blood-bank to linear peptides of the protein M of SARS-CoV Urbani [1]: 0.8; Binding of Control serum LUMC to linear peptides of the protein M of SARS-CoV Urbani [1]: 0.5; Binding of Control serum LUMC to looped peptides of the protein M of SARS-CoV Urbani [1]: 0.9
YSRVKNLNSSEGVPD,–,–,0.4,0.6,0.8,0.8,0.3,0.0,–

Sequence,Rabbit serum linear peptides [2],Rabbit serum looped peptides [2],Binding of Control Serum Blood-Bank to Looped peptides [1],Binding of Control serum Blood-bank to linear peptides [1],Binding of Control serum LUMC to linear peptides [1],Binding of Control serum LUMC to looped peptides [1],Binding of a rabbit serum to linear peptides [2],Binding of a rabbit serum to looped peptides [2],also measured
NYDYCIPYNSVTDTI,–,–,0.6,0.6,0.6,0.7,0.1,0.5,–
NIVNVSLVKPTVYVY,–,–,0.6,0.6,0.4,0.8,0.5,0.6,–
LNTDHAGSNDNIALL,0.0,0.3,–,–,–,–,–,–,Binding of Control Serum Blood-Bank to Looped peptides of the protein M of SARS-CoV Urbani [1]: 0.7; Binding of Control serum Blood-bank to linear peptides of the protein M of SARS-CoV Urbani [1]: 0.6; Binding of Control serum LUMC to linear peptides of the protein M of SARS-CoV Urbani [1]: 0.7; Binding of Control serum LUMC to looped peptides of the protein M of SARS-CoV Urbani [1]: 0.9
LADNKFALTCTSTHF,0.5,0.5,0.7,0.7,0.7,0.7,–,–,–
DNGTITVEELKQLLE,–,–,–,–,–,–,–,–,Binding of Control Serum Blood-Bank to Looped peptides of the protein M of SARS-CoV Urbani [1]: 0.4; Binding of Control serum Blood-bank to linear peptides of the protein M of SARS-CoV Urbani [1]: 0.7; Binding of Control serum LUMC to linear peptides of the protein M of SARS-CoV Urbani [1]: 0.8; Binding of Control serum LUMC to looped peptides of the protein M of SARS-CoV Urbani [1]: 0.7; Recognition of the peptide by the rabbit serum [2]: recognized
GVKDYVVVHGYFTEV,–,–,1.1,0.5,0.7,1.3,0.1,0.7,–
LGSITAQPVKIDNAS,–,–,0.4,0.4,0.5,0.4,0.3,0.4,–
HPLADNKFALTCTST,0.5,0.1,0.8,0.7,0.6,0.9,–,–,–
YHYQECVRGTTVLLK,1.7,0.6,0.7,0.8,0.7,0.8,–,–,–
GISTPKLKEDYQIGG,–,–,0.4,0.5,0.4,0.4,0.1,0.3,–
KLGASQRVGTDSGFA,0.1,0.1,–,–,–,–,–,–,Binding of Control Serum Blood-Bank to Looped peptides of the protein M of SARS-CoV Urbani [1]: 0.8; Binding of Control serum Blood-bank to linear peptides of the protein M of SARS-CoV Urbani [1]: 0.9; Binding of Control serum LUMC to linear peptides of the protein M of SARS-CoV Urbani [1]: 0.9; Binding of Control serum LUMC to looped peptides of the protein M of SARS-CoV Urbani [1]: 0.9
GTTVLLKEPCPSGTY,0.4,0.4,0.7,0.7,0.7,0.8,–,–,–
EGHQTAAFRDVLVVL,0.3,0.6,0.9,0.7,0.9,1.6,–,–,–
KKNYSELDDEEPMEL,0.1,0.0,–,–,–,–,–,–,Binding of Control Serum Blood-Bank to Looped peptides of the protein X3 of SARS-CoV Urbani [1]: 0.6; Binding of Control serum Blood-bank to linear peptides of the protein X3 of SARS-CoV Urbani [1]: 0.5; Binding of Control serum LUMC to linear peptides of the protein X3 of SARS-CoV Urbani [1]: 0.4; Binding of Control serum LUMC to looped peptides of the protein X3 of SARS-CoV Urbani [1]: 0.9
VLKTMSLYMAISPKF,–,–,0.7,0.9,0.5,0.6,0.3,0.5,–
